Assay results from patent US9783536B2, “Nitrogen-containing heterocyclic compound or salt thereof” (FUJIFILM Corporation, priority 2013, dated 2017).
Counter-ions that a name gives are not always drawn. Like-named read-outs stand apart in the source and are kept apart here.

Assays:
[1] = target: T1, human PI3Kα protein (Homo sapiens, UniProt P42336); assay: PI3Kα enzyme assay (ADP-Glo); format: biochemical; settings: read-out: PI3Kα enzyme inhibitory activity
T1 construct: purchased Carna Biosciences, Inc; host or cells: baculovirus expression system
T1 sequence (P42336 whole entry): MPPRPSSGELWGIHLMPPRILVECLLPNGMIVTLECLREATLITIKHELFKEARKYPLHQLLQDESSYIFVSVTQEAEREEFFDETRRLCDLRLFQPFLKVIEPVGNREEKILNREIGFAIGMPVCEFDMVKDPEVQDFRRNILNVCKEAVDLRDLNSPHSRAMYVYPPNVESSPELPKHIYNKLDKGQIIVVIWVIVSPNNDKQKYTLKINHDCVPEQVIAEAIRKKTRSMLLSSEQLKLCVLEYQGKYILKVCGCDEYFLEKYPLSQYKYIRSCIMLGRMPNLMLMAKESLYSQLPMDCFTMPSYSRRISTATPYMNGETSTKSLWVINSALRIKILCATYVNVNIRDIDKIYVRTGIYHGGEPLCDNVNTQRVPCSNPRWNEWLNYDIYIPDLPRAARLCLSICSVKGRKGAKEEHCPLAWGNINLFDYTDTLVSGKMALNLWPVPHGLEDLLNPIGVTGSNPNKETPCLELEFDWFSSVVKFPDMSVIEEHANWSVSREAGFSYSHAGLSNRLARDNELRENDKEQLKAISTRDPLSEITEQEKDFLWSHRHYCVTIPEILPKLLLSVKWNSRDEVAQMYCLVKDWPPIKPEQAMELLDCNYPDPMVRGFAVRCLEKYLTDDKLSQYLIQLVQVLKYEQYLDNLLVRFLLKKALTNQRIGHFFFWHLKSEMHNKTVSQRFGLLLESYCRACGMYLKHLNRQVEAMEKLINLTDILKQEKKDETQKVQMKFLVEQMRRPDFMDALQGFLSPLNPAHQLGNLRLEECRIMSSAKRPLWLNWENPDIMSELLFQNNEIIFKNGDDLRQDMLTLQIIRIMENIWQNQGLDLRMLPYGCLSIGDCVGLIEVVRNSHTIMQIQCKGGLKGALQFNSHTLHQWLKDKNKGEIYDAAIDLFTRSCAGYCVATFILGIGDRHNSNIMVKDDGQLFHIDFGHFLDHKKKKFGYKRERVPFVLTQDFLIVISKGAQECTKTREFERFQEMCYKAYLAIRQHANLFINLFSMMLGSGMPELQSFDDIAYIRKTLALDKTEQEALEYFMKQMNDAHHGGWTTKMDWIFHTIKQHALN
T1 sequence (P27986 whole entry partner): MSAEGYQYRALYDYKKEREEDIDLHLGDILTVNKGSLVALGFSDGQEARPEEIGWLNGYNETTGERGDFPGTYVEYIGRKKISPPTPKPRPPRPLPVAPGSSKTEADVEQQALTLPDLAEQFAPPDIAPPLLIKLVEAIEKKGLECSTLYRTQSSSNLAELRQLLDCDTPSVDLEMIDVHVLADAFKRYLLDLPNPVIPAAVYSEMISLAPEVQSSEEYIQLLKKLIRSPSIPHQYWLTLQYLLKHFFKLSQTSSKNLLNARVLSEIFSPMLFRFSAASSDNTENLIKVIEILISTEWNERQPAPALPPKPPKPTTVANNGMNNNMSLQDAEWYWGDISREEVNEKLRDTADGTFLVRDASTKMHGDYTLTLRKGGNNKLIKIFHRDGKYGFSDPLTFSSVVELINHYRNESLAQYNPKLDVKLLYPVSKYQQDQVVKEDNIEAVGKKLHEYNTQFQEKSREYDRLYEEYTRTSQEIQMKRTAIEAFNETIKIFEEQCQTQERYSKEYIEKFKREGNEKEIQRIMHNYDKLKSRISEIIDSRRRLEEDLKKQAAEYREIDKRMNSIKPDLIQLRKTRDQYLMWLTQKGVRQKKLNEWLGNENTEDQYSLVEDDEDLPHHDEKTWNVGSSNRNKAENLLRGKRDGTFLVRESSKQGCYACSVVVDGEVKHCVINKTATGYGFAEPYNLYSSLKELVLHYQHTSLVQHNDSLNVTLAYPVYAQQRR
Summary of the method: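 Biotinylated human PI3Kα (baculovirus-expressed, 4.5 nmol/L) pre-incubated 15 min with compound in Tris-HCl pH 7.5, MgCl2, BSA; reaction 60 min at 25° C with 50 μmol/L PIP2 and 100 μmol/L ATP final. ADP quantified by ADP-Glo luminescence; IC50 calculated.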

[2] = target: T2, GST fusion human ERK2 protein (Homo sapiens, UniProt P28482); assay: ERK2 enzyme assay (1); format: biochemical; settings: read-out: ERK2 enzyme inhibitory activity (1)
T2 construct: purchased Carna Biosciences, Inc; host or cells: E. coli expression system
T2 sequence (P28482 whole entry, the tested form may be a part): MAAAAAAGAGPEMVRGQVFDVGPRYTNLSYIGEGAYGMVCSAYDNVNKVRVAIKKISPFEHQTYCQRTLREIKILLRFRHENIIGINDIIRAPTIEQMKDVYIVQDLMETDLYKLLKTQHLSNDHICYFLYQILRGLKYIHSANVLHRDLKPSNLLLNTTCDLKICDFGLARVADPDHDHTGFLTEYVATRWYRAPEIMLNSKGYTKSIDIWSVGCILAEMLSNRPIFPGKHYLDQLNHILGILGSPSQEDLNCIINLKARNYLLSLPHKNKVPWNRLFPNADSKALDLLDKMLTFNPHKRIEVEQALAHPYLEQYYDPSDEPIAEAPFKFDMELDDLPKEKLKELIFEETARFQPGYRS
Summary of the method: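 IC50 derived from the proportion of phosphorylated 5-FAM peptide, separated from unphosphorylated peptide by microfluidic mobility shift. Compound was first preincubated 15 min at room temperature with 2.5 nmol/L kinase at pH 7.5, then 43.1 μmol/L ATP plus 4.25 μmol/L substrate reacted 120 min at 25 °C.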

[3] = 4.5 nmol/L PI3Kα, PIP2 50 μmol/L, ATP 100 μmol/L
[4] = 2.5 nmol/L ERK2, ATP 43.1 μmol/L

Compound	IC50 [1, 3] [µM]	IC50 [2, 4] [µM]	IC50 [1] [µM]	IC50 ([2]; ERK2 enzyme assay (1)) [µM]
Cn1cc(-c2cnc3ccc(Nc4cncs4)nc3c2)cn1 [Example 0199, N-(7-(1-methyl-1H-pyrazol-4-yl)-1,5-naphthyridin-2-yl)thiazole-5-amine]	1 to 10	1 to 10	–	–
c1cc(Nc2cnc3ccc(Nc4nnc(C5CCCC5)s4)nc3c2)ccc1CCN1CCOCC1 [Example 0107]	< 1	< 1	–	–
CC(=O)N1CC=C(c2cnc3ccc(Nc4nnc(C5CCCC5)s4)nc3c2)CC1 [Example 0334, 1-(4-(6-((5-cyclopentyl-1,3,4-thiadiazol-2-yl)amino)-1,5-naphthyridin-3-yl)-5,6-dihydropyridine-1(2H)-yl)ethanone]	–	–	< 1	< 1
CC(C)c1nnc(Nc2ccc3nccc(-c4ccn[nH]4)c3n2)s1 [Example 0285]	–	–	< 1	< 1
CN(c1cn[nH]c1)c1cnc2ccc(Nc3nnc(C4CCCC4)s3)nc2c1 [Example 0196, N^2-(5-cyclopentyl-1,3,4-thiadiazol-2-yl)-N^7-methyl-N^7-(1H-pyrazol-4-yl)-1,5-naphthyridine-2,7-diamine]	1 to 10	< 1	–	–
c1n[nH]cc1-c1cnc2ccc(Nc3nnc(C4CCCC4)s3)nc2c1 [Example 0201]	–	–	1 to 10	< 1
CC(=O)N1CCN(c2cnc3ccc(Nc4nnc(C5CCCC5)s4)nc3c2)CC1 [Example 0048]	1 to 10	< 1	–	–
O=C1C=C(c2cnc3ccc(Nc4nnc(C5CCCC5)s4)nc3c2)CO1 [Example 0045, 4-(6-((5-cyclopentyl-1,3,4-thiadiazol-2-yl)amino)-1,5-naphthyridin-3-yl)furan-2(5H)-one hydrochloride]	10 to 50	< 1	–	–
OCCc1nnc(Nc2ccc3ncc(-c4cnn(CCCN5CCCC5)c4)cc3n2)s1 [Example 0367]	–	–	< 1	< 1
c1cnc2ccc(Nc3nnc(C4CCCC4)s3)nc2c1 [Example 0043, 5-cyclopentyl-N-(1,5-naphthyridin-2-yl)-1,3,4-thiadiazole-2-amine hydrochloride]	1 to 10	< 1	–	–
c1cncc(Nc2cnc3ccc(Nc4nnc(C5CCCC5)s4)nc3c2)c1 [Example 0207]	–	–	< 1	< 1
CC(C)c1nnc(Nc2ccc3nccc(Nc4ccnnc4)c3n2)s1 [Example 0008]	< 1	1 to 10	–	–
Cc1nnc(Nc2ccc3ncc(N(C)c4cn[nH]c4)cc3n2)s1 [Example 0183, N^7-methyl-N^2-(5-methyl-1,3,4-thiadiazol-2-yl)-N^7-(1H-pyrazol-4-yl)-1,5-naphthyridine-2,7-diamine]	1 to 10	< 1	–	–
CC(C)c1nnc(Nc2ccc3ncc(-c4cn(C)nc4C(C)C)cc3n2)s1 [Example 0125]	< 1	< 1	–	–
CC(C)c1nnc(Nc2ccc3nccc(Nc4cccnc4)c3n2)s1 [Example 0006]	< 1	< 1	–	–
O=S(=O)(Nc1ccccc1)c1nnc(Nc2ccc3ncc(-c4cnn(CCN5CCOCC5)c4)cc3n2)s1 [Example 0188, 5-((7-(1-(2-morpholinoethyl)-1H-pyrazol-4-yl)-1,5-naphthyridin-2-yl)amino)-N-phenyl-1,3,4-thiadiazole-2-sulfonamide sodium salt]	< 1	< 1	–	–
c1n[nH]cc1Nc1cnc2ccc(Nc3nnc(C4CCCCC4)s3)nc2c1 [Example 0223]	–	–	1 to 10	< 1
CC(C)(O)Cc1nnc(Nc2ccc3ncc(-c4cnn(CCCN5CCCC5)c4)cc3n2)s1 [Example 0260]	–	–	< 1	< 1

Compound	IC50 [1, 3] [µM]	IC50 [2, 4] [µM]	IC50 [1] [µM]	IC50 ([2]; ERK2 enzyme assay (1)) [µM]
CC(C)c1nnc(Nc2ccc3nccc(-c4cccc(C(N)=O)c4)c3n2)s1 [Example 0287]	–	–	< 1	< 1
c1nc2ccc(Nc3nnc(C4CCCC4)s3)nc2cc1NC1CCOCC1 [Example 0312]	–	–	< 1	< 1
CC(C)c1nnc(Nc2ccc3nccc(-c4cnccn4)c3n2)s1 [Example 0282]	–	–	1 to 10	1 to 10
CN(C)CC(C)(C)Cn1cc(-c2cnc3ccc(Nc4nnc(C5CCCC5)s4)nc3c2)cn1 [Example 0317, 5-Cyclopentyl-N-(7-(1-(3-(dimethylamino)-2,2-dimethylpropyl)-1H-pyrazol-4-yl)-1,5-naphthyridin-2-yl)-1,3,4-thiadiazole-2-amine]	–	–	< 1	< 1
c1nnc(Nc2ccc3ncc(Nc4cn[nH]c4)cc3n2)s1 [Example 0186, N^7-(1H-pyrazol-4-yl)-N^2-(1,3,4-thiadiazol-2-yl)-1,5-naphthyridine-2,7-diamine]	< 1	< 1	–	–
Cn1cc(-c2cnc3ccc(Nc4ncc[nH]4)nc3c2)cn1 [Example 0030, N-(1H-imidazol-2-yl)-7-(1-methyl-1H-pyrazol-4-yl)-1,5-naphthyridine-2-amine]	< 1	< 1	–	–
CCOC(=O)c1cnc(Nc2ccc3ncc(-c4cnn(C)c4)cc3n2)s1 [Example 0035, ethyl 2-((7-(1-methyl-1H-pyrazol-4-yl)-1,5-naphthyridin-2-yl)amino)thiazole-5-carboxylate]	< 1	1 to 10	–	–
CC(C)c1nnc(Nc2ccc3nccc(-c4cnn(CCN5CCOCC5)c4)c3n2)s1 [Example 0274]	–	–	< 1	1 to 10
OCc1nnc(Nc2ccc3ncc(-c4cnn(CCCN5CCCC5)c4)cc3n2)s1 [Example 0239, (5-((7-(1-(3-(Pyrrolidin-1-yl)propyl)-1H-pyrazol-4-yl)-1,5-naphthyridin-2-yl)amino)-1,3,4-thiadiazol-2-yl)methanol]	–	–	< 1	< 1
OCCNc1cnc2ccc(Nc3nnc(C4CCCC4)s3)nc2c1 [Example 0310]	–	–	1 to 10	< 1
CCC(C)c1nnc(Nc2ccc3ncc(-c4cnn(CCCN5CCCC5)c4)cc3n2)s1 (stereo not drawn) [Example 0263]	–	–	< 1	< 1
CC(C)c1cnnc(Nc2ccc3ncc(-c4cnn(Cc5ccncc5)c4)cc3n2)c1 [Example 0381]	–	–	< 1	< 1
CC(C)c1nnc(Nc2ccc3ncc(-c4cnn(C)c4-c4cnn(C)c4)cc3n2)s1 [Example 0476, N-(7-(1′,2-dimethyl-1′H,2H-[3,4′-bipyrazole]-4-yl)-1,5-naphthyridin-2-yl)-5-isopropyl-1,3,4-thiadiazole-2-amine]	–	–	< 1	< 1
c1ccc(-c2ccc(Nc3cnc4ccc(Nc5nnc(C6CCCC6)s5)nc4c3)cn2)cc1 [Example 0069]	10 to 50	1 to 10	–	–
c1nc2ccc(Nc3nnc(C4CCCO4)s3)nc2cc1-c1cnn(C2CCNCC2)c1 (stereo not drawn) [Example 0324, N-(7-(1-(piperidin-4-yl)-1H-pyrazol-4-yl)-1,5-naphthyridin-2-yl)-5-(tetrahydrofuran-2-yl)-1,3,4-thiadiazole-2-amine]	–	–	< 1	< 1
CC(C)c1cnc(Nc2ccc3ncc(-c4cnn(CCCN5CCCC5)c4)cc3n2)s1 [Example 0119]	< 1	< 1	–	–
CC(C)c1nnc(Nc2ccc3nccc(-c4ccccc4)c3n2)s1 [Example 0264, 5-isopropyl-N-(8-phenyl-1,5-naphthyridin-2-yl)-1,3,4-thiadiazole-2-amine]	–	–	1 to 10	< 1
c1nc2ccc(Nc3nnc(CC4CCCC4)s3)nc2cc1-c1cnn(CCCN2CCCC2)c1 [Example 0234]	–	–	< 1	< 1
